target: T1, human S6K1 (RPS6KB1) protein, residues 1–421 with the T412E mutation (Homo sapiens, UniProt P23443, T412E); assay: Kinase mobility shift assay; type: biochemical; conditions: S6K1 residues 1–421, T412E mutation; 2 nM enzyme; 30 min pre-incubation; ATP 0.5 mM; FL-Peptide 26 1.5 μM
T1 construct: the human S6K1 (RPS6KB1) protein, residues 1–421 with the T412E mutation; purchased Carna Biosciences (Kobe, Japan)
Procedure: The mobility shift assay was performed as reported. Briefly, the reaction buffer consisted of 50 mM Hepes (pH 7.4), containing 10 mM MgCl2, 0.01 %(w/v) Brij-35, 1 mM dithiothreitol (DTT), 1 %(v/v) Protease Inhibitor Cocktail Set V [Calbiochem (EMD Millipore), Darmstadt, Germany], 1 %(v/v) Phosphatase Inhibitor Cocktail Set III [Calbiochem (EMD Millipore), Darmstadt, Germany], and 0.6 %(v/v) DMSO. […] The S6K1 protein (final concentration of 2 nM) in the reaction buffer was first incubated with different concentrations of the compounds (0–10 μM) for 30 min. […] The kinase reactions were performed at room temperature, and stopped by the addition of termination buffer [50 mM Hepes buffer (pH 7.4), containing 140 mM EDTA and 0.01 %(w/v) Brij-35]. The phosphorylated and unphosphorylated peptides thus obtained were separated and quantified with a Lab-Chip EZ Reader II (PerkinElmer, MA). Data were fitted using a sigmoidal dose–response regression algorithm in GraphPad Prism (GraphPad Software, La Jolla, CA).

T1 sequence (P23443 1-421 T412E): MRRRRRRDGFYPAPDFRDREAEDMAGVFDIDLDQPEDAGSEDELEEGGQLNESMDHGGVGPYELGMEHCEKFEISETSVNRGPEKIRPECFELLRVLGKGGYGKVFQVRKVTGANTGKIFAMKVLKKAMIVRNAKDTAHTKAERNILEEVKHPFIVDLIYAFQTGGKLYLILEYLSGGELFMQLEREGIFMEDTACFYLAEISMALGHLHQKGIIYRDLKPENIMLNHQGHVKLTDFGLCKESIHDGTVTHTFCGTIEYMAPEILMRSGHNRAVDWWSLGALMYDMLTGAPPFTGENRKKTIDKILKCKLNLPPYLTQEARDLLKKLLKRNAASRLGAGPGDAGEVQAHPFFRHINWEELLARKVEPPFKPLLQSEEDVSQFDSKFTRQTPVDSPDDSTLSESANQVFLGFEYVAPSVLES

Row | SMILES | IC50 [nM]
1 | c1ccc2[nH]c(C3CCN(c4ncnc5[nH]ncc45)CC3)nc2c1 [Compound F108, 4-[4-(1H-benzimidazol-2-yl)piperidin-1-yl]-1H-pyrazolo[3,4-d]pyrimidine] | 81
2 | C1=C(c2c[nH]c3ccccc23)CCN(c2ncnc3[nH]ncc23)C1 [Compound F109, 4-[4-(1H-indol-3-yl)-3,6-dihydropyridin-1(2H)-yl]-1H-pyrazolo[3,4-d]pyrimidine] | 33
3 | O=C(Nc1cccc(C(F)(F)F)c1)C1CCN(c2ncnc3[nH]cnc23)CC1 [Compound F179, 1-(9H-purin-6-yl)-N-[3-(trifluoromethyl)phenyl]piperidine-4-carboxamide] | 206

Continued, values first:

Row | IC50 [nM] | SMILES
4 | 232 | NS(=O)(=O)c1ccc(NC(=O)COC(=O)c2c3c(nc4ccccc24)CCCCC3)cc1 [Compound F176, 2-oxo-2-[(4-sulfamoylphenyl)amino]ethyl 7,8,9,10-tetrahydro-6H-cyclohepta[b]quinoline-11-carboxylate]
5 | 567 | CC1CCc2nc3ccccc3c(C(=O)OC(C)C(=O)Nc3ccc(S(N)(=O)=O)cc3)c2C1 (centres unmarked) [Compound F177, 1-oxo-1-[(4-sulfamoylphenyl)amino]propan-2-yl-2-methyl-1,2,3,4-tetrahydroacridine-9-carboxylate]
